{"source": "paper PMC9021288", "about": "(Nature Communications, 2022)", "key": {"[1]": {"tested_on": "HepG2 cells", "assay": "HepG2 viability (resazurin)", "conditions": "for HepG2 viability assay, normalised to controls / HepG2 viability assay, raw signal: replicate 1, replicate 2", "experimental": "(§1) Safety studies were performed by commercial services using their standard protocols. […] Genotoxicity was investigated using the Ames test (Bacterial Reverse Mutation Assay) (Covance Laboratories Ltd, North Yorkshire, England). In vitro mammalian cell micronucleus screening assay was studied in human peripheral blood lymphocytes (BioReliance Corporation, Rockville, USA). Cardiotoxicity was determined against the hERG channel in an automated patch clamp assay using the Qpatch or against the hNaV 1.5, hKV 1.5 and hCaV 1.2 using a manual patch-clamp technique (Metrion Biosciences, Cambridge, UK). Cytotoxicity in human and rat primary hepatocytes was assessed using the CellTiter-Blue assay performed by commercial services (KaLy-Cell). The viability of HepG2 cells was monitored through the addition of 1 mM resazurin. Following 6 h incubation, the relative amount of reduced resazurin was detected in a fluorimeter and compared to the assay controls (vehicle: 0.1% DMSO and positive control: 10 µM puromycin)."}, "[2]": {"assay": "Solubility in PBS, FaSSIF, FeSSIF", "type": "physicochemical"}, "[3]": {"tested_on": "CYP3A4", "assay": "CYP induction (mRNA) in human hepatocytes", "type": "in vitro ADME", "conditions": "for CYP3A4 mean fold induction: per donor", "experimental": "(§2) Positive control inducers (omeprazole for CYP1A2, phenobarbital for CYP2B6, and rifampicin for CYP3A4), were incubated alongside the test compound. For mRNA assessment, cells were lysed and resultant samples analyzed using an ABI 7900 HT real-time PCR system."}, "[4]": {"tested_on": "CYP2B6", "assay": "CYP induction (mRNA) in human hepatocytes", "type": "in vitro ADME", "conditions": "for CYP2B6 mean fold induction: per donor", "experimental": "as §2"}, "[5]": {"tested_on": "CYP1A2", "assay": "CYP induction (mRNA) in human hepatocytes", "type": "in vitro ADME", "conditions": "for CYP1A2 mean fold induction: per donor", "experimental": "as §2"}, "[6]": {"tested_on": "AcAS-cKD P. falciparum", "assay": "Drug sensitivity of AcAS conditional knockdown parasites", "type": "cell-based, Plasmodium falciparum", "conditions": "[…] vs 500 nM aTc", "experimental": "Replication assays were performed using a SYBR Green method as described previously. Briefly, asynchronous parasites were diluted to 0.83% parasitemia, 3% hematocrit in 30 µl medium, and added to 30 µl of diluted compounds in medium (0.1% DMSO final concentration) in black 384-wells plates. After a 72-h incubation, 30 µl of SYBR Green diluted in lysis buffer was added according to the manufacturer’s protocol (Life Technologies). Fluorescence intensity was measured on a BioTek Synergy 2 Plate Reader after 1-h incubation and was normalized to a DMSO control (100% growth) and DHA- or epoxomicin-treatment (no growth). […] Parasite survival was assessed by flow cytometry on an Accuri C6 (BD Biosciences) with BD C6 Plus software using SYBR Green and MitoTracker Deep Red FM (Life Technologies) as nuclear stain and vital dye, respectively, and data were analyzed using FlowJo (10.5.0). […] Luminescence was measured after 72 h using the Renilla-Glo(R) Luciferase Assay System (Promega E2750) and the GlomAX® Discover Multimode Microplate Reader (Promega). The luminescence values were normalized to DMSO vehicle (100% growth) and 200 nM chloroquine-treated (no growth) samples as controls."}, "[7]": {"tested_on": "P. falciparum NF54 female gametocytes", "assay": "Dual gamete formation assay, female", "type": "cell-based, Plasmodium falciparum", "conditions": "read-out: IC50 female gametocyte activation", "experimental": "After a 48-h incubation, gamete formation was stimulated by a drop in temperature (from 37 °C to 26 °C), and the addition of xanthurenic acid (2.5 µM). At 20 min after induction, exflagellation was recorded by automated time-lapse microscopy. After data collection, the plate was returned to a 26 °C incubator and incubated for 24 h. Female gamete formation was assessed by live staining with a Cy3-labelled anti-Pfs25 monoclonal antibody (1:2222) and recorded by automated microscopy."}, "[8]": {"target": "T1, hERG channel (Homo sapiens, UniProt Q12809)", "T1 construct": "Metrion Biosciences", "T1 sequence (Q12809 whole entry)": "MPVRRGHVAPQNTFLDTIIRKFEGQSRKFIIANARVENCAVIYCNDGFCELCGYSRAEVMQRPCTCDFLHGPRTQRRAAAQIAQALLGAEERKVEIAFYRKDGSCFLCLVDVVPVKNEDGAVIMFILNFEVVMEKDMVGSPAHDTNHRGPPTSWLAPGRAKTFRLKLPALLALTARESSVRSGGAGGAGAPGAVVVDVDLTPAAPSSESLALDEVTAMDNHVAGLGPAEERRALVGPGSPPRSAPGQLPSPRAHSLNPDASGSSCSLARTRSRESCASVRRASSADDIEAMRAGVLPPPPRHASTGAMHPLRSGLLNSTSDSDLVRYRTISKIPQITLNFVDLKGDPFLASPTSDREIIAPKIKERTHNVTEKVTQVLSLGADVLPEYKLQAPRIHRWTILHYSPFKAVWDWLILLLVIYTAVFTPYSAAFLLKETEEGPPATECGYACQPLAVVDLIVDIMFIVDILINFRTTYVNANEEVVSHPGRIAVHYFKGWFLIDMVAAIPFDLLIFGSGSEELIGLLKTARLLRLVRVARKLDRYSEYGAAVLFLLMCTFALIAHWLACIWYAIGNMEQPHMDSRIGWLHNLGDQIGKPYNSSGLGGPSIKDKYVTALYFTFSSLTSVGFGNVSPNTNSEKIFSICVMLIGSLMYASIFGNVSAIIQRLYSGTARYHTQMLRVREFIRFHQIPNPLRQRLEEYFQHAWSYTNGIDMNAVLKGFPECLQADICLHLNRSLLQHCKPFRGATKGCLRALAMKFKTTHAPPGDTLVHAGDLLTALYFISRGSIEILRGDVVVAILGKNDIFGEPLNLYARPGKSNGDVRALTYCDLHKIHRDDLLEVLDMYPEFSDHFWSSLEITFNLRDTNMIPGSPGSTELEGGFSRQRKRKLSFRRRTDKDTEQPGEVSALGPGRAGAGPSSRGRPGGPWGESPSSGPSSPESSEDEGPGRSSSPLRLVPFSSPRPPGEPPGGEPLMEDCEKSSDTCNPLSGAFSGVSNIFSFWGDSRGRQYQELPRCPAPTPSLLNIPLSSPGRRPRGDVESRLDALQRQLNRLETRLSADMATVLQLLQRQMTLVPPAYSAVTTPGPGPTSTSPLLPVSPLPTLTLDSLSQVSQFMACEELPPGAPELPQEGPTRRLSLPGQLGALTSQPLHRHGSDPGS", "assay": "Automated patch clamp (Qpatch)", "type": "cell-based", "experimental": "as §1"}, "[9]": {"tested_on": "P. falciparum Pf3D7^0087/N9 and Pf3D7^20161128TAD17N214", "assay": "PKPD efficacy studies in humanized NSG mice and PD model", "type": "in vivo, Plasmodium falciparum", "experimental": "(§3) The experimental designs are summarized in Supplementary Table 30. […] Samples were processed under liquid-liquid extraction methods and analyzed by LC-MS/MS for quantitation in a Waters UPLC-TQD (Micromass, Manchester, UK).\n(§4) Data preparation, exploration and model pre- and postprocessing were performed using R (version 3.6.3) and R package IQRtools (version 1.2.1 IntiQuan GmbH). Non-linear mixed-effects (NLME) modeling was used to estimate the PK and PD parameters using Monolix (Lixoft version MLX2018R2). The population PKPD model was developed with a two-stage approach: first, a population PK model was determined; then, the individual PK parameters were used as regression parameters and the PD parameters were estimated. The PD model consists of the balance between a parasite net growth rate and a drug killing rate. […] The growth rate of log-transformed parasite concentration was fixed at 0.03 /h based on prior experiments but estimating growth rate interindividual variability. Different Hill coefficients were tested."}, "[10]": {"assay": "Population PK model in NSG mice", "type": "in vivo, female NSG mice", "conditions": "population PK model estimate", "experimental": "as §3, §4"}}, "note": "Values joined by “and” are separate entries in the source; they are usually repeats but may differ in a detail not shown here. Identical values can stand only once."}
{"smiles": "C[C@@H](CNC(=O)[C@H](O)C(C)(C)CO)NC(=O)c1cc(F)c(F)cc1F", "note": "[MMV693183]", "values": [{"measurement": "HepG2 viability assay, normalised to controls", "setting": "[1]; log concentration (M) -5", "value": "96% and 104%"}, {"measurement": "HepG2 viability assay, raw signal", "setting": "[1]; log concentration (M) -5", "value": "10734 and 11536"}, {"measurement": "HepG2 viability assay, normalised to controls", "setting": "[1]; log concentration (M) -5.5", "value": "103% and 105%"}, {"measurement": "HepG2 viability assay, raw signal", "setting": "[1]; log concentration (M) -5.5", "value": "11483 and 11722"}, {"measurement": "HepG2 viability assay, normalised to controls", "setting": "[1]; log concentration (M) -6", "value": "105% and 100%"}, {"measurement": "HepG2 viability assay, raw signal", "setting": "[1]; log concentration (M) -6", "value": "11668 and 11173"}, {"measurement": "HepG2 viability assay, normalised to controls", "setting": "[1]; log concentration (M) -6.5", "value": "103% and 102%"}, {"measurement": "HepG2 viability assay, raw signal", "setting": "[1]; log concentration (M) -6.5", "value": "11442 and 11328"}, {"measurement": "HepG2 viability assay, normalised to controls", "setting": "[1]; log concentration (M) -7", "value": "100% and 101%"}, {"measurement": "HepG2 viability assay, raw signal", "setting": "[1]; log concentration (M) -7", "value": "11114 and 11207"}, {"measurement": "HepG2 viability assay, normalised to controls", "setting": "[1]; log concentration (M) -7.5", "value": "104% and 107%"}, {"measurement": "HepG2 viability assay, raw signal", "setting": "[1]; log concentration (M) -7.5", "value": "11575 and 11909"}, {"measurement": "HepG2 viability assay, normalised to controls", "setting": "[1]; log concentration (M) -8", "value": "105% and 102%"}, {"measurement": "HepG2 viability assay, raw signal", "setting": "[1]; log concentration (M) -8", "value": "11700 and 11315"}, {"measurement": "HepG2 viability assay, normalised to controls", "setting": "[1]; log concentration (M) -8.5", "value": "105% and 101%"}, {"measurement": "HepG2 viability assay, raw signal", "setting": "[1]; log concentration (M) -8.5", "value": "11684 and 11300"}, {"measurement": "HepG2 viability assay, normalised to controls", "setting": "[1]; log concentration (M) -9", "value": 109, "unit": "%"}, {"measurement": "HepG2 viability assay, raw signal", "setting": "[1]; log concentration (M) -9", "value": "12138 and 12106"}, {"measurement": "IC50", "setting": "[1]; read-out: IC50 viability, HepG2", "value": "> 10", "unit": "µM"}, {"measurement": "solubility", "setting": "[2]; FaSSIF", "value": 25.5, "unit": "µM"}, {"measurement": "solubility", "setting": "[2]; FeSSIF", "value": 25.0, "unit": "µM"}, {"measurement": "solubility", "setting": "[2]; PBS", "value": 7.1, "unit": "mg/mL"}, {"measurement": "solubility", "setting": "[2]; fasted-state simulated intestinal fluid", "value": 9.2, "unit": "mg/mL"}, {"measurement": "solubility", "setting": "[2]; fed-state simulated intestinal fluid", "value": 9.1, "unit": "mg/mL"}, {"measurement": "CYP3A4 mean fold induction", "setting": "[3]; 5 µM", "value": "1.22 and 1.03 and 1.21"}, {"measurement": "CYP3A4 mean fold induction", "setting": "[3]; 15 µM", "value": "0.824 and 0.905 and 0.816"}, {"measurement": "CYP3A4 mean fold induction", "setting": "[3]; 50 µM", "value": "0.779 and 0.500 and 1.26"}, {"measurement": "CYP3A4 mean fold induction", "setting": "[3]; 150 µM", "value": "1.19 and 0.477 and 1.98"}, {"measurement": "CYP3A4 mean fold induction", "setting": "[3]; 250 µM", "value": "0.665 and 2.86"}, {"measurement": "CYP3A4 mean fold induction", "setting": "[3]; 500 µM", "value": "3.6 and 3.63 and 1.49 and 3.16"}, {"measurement": "concentration at which CYP3A4 was induced", "setting": "[3]; 72 h, three donors", "value": "greater than 150 µM"}, {"measurement": "CYP2B6 mean fold induction", "setting": "[4]; 5 µM", "value": "1.75 and 0.995 and 1.18"}, {"measurement": "CYP2B6 mean fold induction", "setting": "[4]; 15 µM", "value": "1.38 and 0.951 and 1.660"}, {"measurement": "CYP2B6 mean fold induction", "setting": "[4]; 50 µM", "value": "0.959 and 0.828 and 0.886"}, {"measurement": "CYP2B6 mean fold induction", "setting": "[4]; 150 µM", "value": "0.663 and 0.721 and 0.727"}, {"measurement": "CYP2B6 mean fold induction", "setting": "[4]; 250 µM", "value": "0.667 and 0.582"}, {"measurement": "CYP2B6 mean fold induction", "setting": "[4]; 500 µM", "value": "0.495 and 0.699 and 0.325"}, {"measurement": "CYP2B6 induction", "setting": "[4]; up to 500 µM", "value": "did not induce CYP1A2 nor CYP2B6"}, {"measurement": "CYP1A2 mean fold induction", "setting": "[5]; 5 µM", "value": "1.48 and 1.11 and 1.38"}, {"measurement": "CYP1A2 mean fold induction", "setting": "[5]; 15 µM", "value": "1.04 and 1.07 and 0.844"}, {"measurement": "CYP1A2 mean fold induction", "setting": "[5]; 50 µM", "value": "0.874 and 0.824 and 0.795"}, {"measurement": "CYP1A2 mean fold induction", "setting": "[5]; 150 µM", "value": "0.704 and 0.613 and 0.609"}, {"measurement": "CYP1A2 mean fold induction", "setting": "[5]; 250 µM", "value": "0.586 and 0.436"}, {"measurement": "CYP1A2 mean fold induction", "setting": "[5]; 500 µM", "value": "0.357 and 0.496 and 0.293"}, {"measurement": "CYP1A2 induction", "setting": "[5]; up to 500 µM", "value": "did not induce CYP1A2 nor CYP2B6"}, {"measurement": "IC50 decrease upon knockdown (low aTc)", "setting": "[6]", "value": 5, "unit": "fold"}, {"measurement": "IC50", "setting": "[7]", "value": 0.012, "unit": "µM"}, {"measurement": "IC50", "setting": "[8]", "value": "> 10", "unit": "µM"}, {"measurement": "EC50, concentration achieving 50percent of maximum effect", "setting": "[9]; PD model estimate", "value": 11.5, "unit": "ng/mL"}, {"measurement": "MIC", "setting": "[9]; PKPD model", "value": 3.2, "unit": "ng/mL"}, {"measurement": "MPC90", "setting": "[9]; PKPD model", "value": 38.4, "unit": "ng/mL"}, {"measurement": "ED90", "setting": "[9]; in vivo", "value": 4.4, "unit": "mg/kg"}, {"measurement": "time at which 3D7 parasites were cleared", "setting": "[9]; single-dose groups", "value": "4 to 6", "unit": "days"}, {"measurement": "CL, apparent clearance", "setting": "[10]", "value": 1.25, "unit": "L/h"}, {"measurement": "Tk0, absorption time", "setting": "[10]", "value": 0.364, "unit": "h"}, {"measurement": "Vc, apparent central volume", "setting": "[10]", "value": 2.25, "unit": "L"}, {"measurement": "Vp1, apparent peripheral volume", "setting": "[10]", "value": 799, "unit": "L"}, {"measurement": "Vp2, apparent second peripheral volume", "setting": "[10]", "value": 1.81, "unit": "L"}]}
